This passage reports IC50 results from patent US8541407B2 (ArQule, Inc., priority 2010, dated 2013).

Sequence of AKT1 (P31749 whole entry): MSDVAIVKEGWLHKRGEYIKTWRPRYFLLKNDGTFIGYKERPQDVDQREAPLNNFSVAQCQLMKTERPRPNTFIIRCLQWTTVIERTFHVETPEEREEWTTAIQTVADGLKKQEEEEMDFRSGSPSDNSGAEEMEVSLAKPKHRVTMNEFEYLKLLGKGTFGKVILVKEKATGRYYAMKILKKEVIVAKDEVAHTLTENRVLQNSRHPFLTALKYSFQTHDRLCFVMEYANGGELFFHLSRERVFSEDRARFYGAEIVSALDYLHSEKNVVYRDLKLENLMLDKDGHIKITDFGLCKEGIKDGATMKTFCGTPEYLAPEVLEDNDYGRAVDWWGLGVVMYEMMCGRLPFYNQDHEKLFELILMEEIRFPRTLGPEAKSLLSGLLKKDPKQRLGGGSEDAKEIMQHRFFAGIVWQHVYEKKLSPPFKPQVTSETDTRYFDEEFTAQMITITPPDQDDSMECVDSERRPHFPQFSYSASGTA

The assay deals with AKT1 (Homo sapiens (Human), UniProt P31749). Briefly: Inactive Akt Alpha Screen Assay. To be noted: non *labeled: Akt Alpha Screen assay; read-out: AKT1 biochemical assay, IC50. In a few lines:
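AKT1 activated in situ by PDK1, MAPKAPK2, lipid vesicles and ATP, then phosphorylating biotinylated crosstide for 30 min at room temperature. Stopped with 10 mM EDTA; phosphopeptide detected by AlphaScreen using phospho-AKT substrate antibody (1:350), Protein A acceptor and streptavidin donor beads, 90 min dark, ex 640/em 570 nm.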
As to `O=C(c1ccccc1)N1CCN(Cc2ccc(-c3nnc4n3-c3cccnc3Nc3ccccc3-4)cc2)CC1` [Example 144, (4-(4-(9H-benzo[f]pyrido[2,3-b][1,2,4]triazolo[4,3-d][1,4]diazepin-3-yl)benzyl)piperazin-1-yl)(phenyl)methanone], the IC50 was determined as 1.9 µM.
Regarding `COC(=O)c1sccc1S(=O)(=O)NC1CCN(Cc2ccc(-c3nnc4n3-c3cccnc3Nc3ccccc3-4)cc2)CC1` [Example 145, methyl 3-(N-(1-(4-(9H-benzo[f]pyrido[2,3-b][1,2,4]triazolo[4,3-d][1,4]diazepin-3-yl)benzyl)piperidin-4-yl)sulfamoyl)thiophene-2-carboxylate], the IC50 was 0.79 µM.
On to `Cc1noc(C)c1S(=O)(=O)NC1CCN(Cc2ccc(-c3nnc4n3-c3cccnc3Nc3ccccc3-4)cc2)CC1` [Example 146, N-(1-(4-(9H-benzo[f]pyrido[2,3-b][1,2,4]triazolo[4,3-d][1,4]diazepin-3-yl)benzyl)piperidin-4-yl)-3,5-dimethylisoxazole-4-sulfonamide], for which the IC50 is 6.8 µM.
In the case of `O=S(=O)(NC1CCN(Cc2ccc(-c3nnc4n3-c3cccnc3Nc3ccccc3-4)cc2)CC1)c1ccccc1F` [Example 147, N-(1-(4-(9H-benzo[f]pyrido[2,3-b][1,2,4]triazolo[4,3-d][1,4]diazepin-3-yl)benzyl)piperidin-4-yl)-2-fluorobenzenesulfonamide] it was 2.3 µM; in that of `O=S(=O)(CC1CCCCC1)NC1CCN(Cc2ccc(-c3nnc4n3-c3cccnc3Nc3ccccc3-4)cc2)CC1` [Example 148, N-(1-(4-(9H-benzo[f]pyrido[2,3-b][1,2,4]triazolo[4,3-d][1,4]diazepin-3-yl)benzyl)piperidin-4-yl)-1-cyclohexylmethanesulfonamide], 3.4 µM; in that of `O=S(=O)(NC1CCN(Cc2ccc(-c3nnc4n3-c3cccnc3Nc3ccccc3-4)cc2)CC1)C1CC1` [Example 149, N-(1-(4-(9H-benzo[f]pyrido[2,3-b][1,2,4]triazolo[4,3-d][1,4]diazepin-3-yl)benzyl)piperidin-4-yl)cyclopropanesulfonamide], 5.3 µM.
Turning to `COc1cccc(S(=O)(=O)NC2CCN(Cc3ccc(-c4nnc5n4-c4cccnc4Nc4ccccc4-5)cc3)CC2)c1` [Example 150, N-(1-(4-(9H-benzo[f]pyrido[2,3-b][1,2,4]triazolo[4,3-d][1,4]diazepin-3-yl)benzyl)piperidin-4-yl)-3-methoxybenzenesulfonamide], the IC50 was 3 µM.
On to `CC(=O)Nc1ccc(S(=O)(=O)NC2CCN(Cc3ccc(-c4nnc5n4-c4cccnc4Nc4ccccc4-5)cc3)CC2)cc1` [Example 151, N-(4-(N-(1-(4-(9H-benzo[f]pyrido[2,3-b][1,2,4]triazolo[4,3-d][1,4]diazepin-3-yl)benzyl)piperidin-4-yl)sulfamoyl)phenyl)acetamide], for which the IC50 was found to be 5 µM.
As for `O=S(=O)(Cc1ccccc1)NC1CCN(Cc2ccc(-c3nnc4n3-c3cccnc3Nc3ccccc3-4)cc2)CC1` [Example 152, N-(1-(4-(9H-benzo[f]pyrido[2,3-b][1,2,4]triazolo[4,3-d][1,4]diazepin-3-yl)benzyl)piperidin-4-yl)-1-phenylmethanesulfonamide], the IC50 amounted to 1.8 µM.
With `Cc1nc(C)c(S(=O)(=O)NC2CCN(Cc3ccc(-c4nnc5n4-c4cccnc4Nc4ccccc4-5)cc3)CC2)s1` [Example 153, N-(1-(4-(9H-benzo[f]pyrido[2,3-b][1,2,4]triazolo[4,3-d][1,4]diazepin-3-yl)benzyl)piperidin-4-yl)-2,4-dimethylthiazole-5-sulfonamide], the IC50 stood at 5.3 µM.
In the case of `CC(C)CS(=O)(=O)NC1CCN(Cc2ccc(-c3nnc4n3-c3cccnc3Nc3ccccc3-4)cc2)CC1` [Example 154, N-(1-(4-(9H-benzo[f]pyrido[2,3-b][1,2,4]triazolo[4,3-d][1,4]diazepin-3-yl)benzyl)piperidin-4-yl)-2-methylpropane-1-sulfonamide] it was 6.4 µM.
In the case of `CC(=O)c1ccc(S(=O)(=O)NC2CCN(Cc3ccc(-c4nnc5n4-c4cccnc4Nc4ccccc4-5)cc3)CC2)cc1` [Example 155, N-(1-(4-(9H-benzo[f]pyrido[2,3-b][1,2,4]triazolo[4,3-d][1,4]diazepin-3-yl)benzyl)piperidin-4-yl)-4-acetylbenzenesulfonamide] it was 3.4 µM; in that of `O=S(=O)(NC1CCN(Cc2ccc(-c3nnc4n3-c3cccnc3Nc3ccccc3-4)cc2)CC1)c1cccc(F)c1` [Example 157, N-(1-(4-(9H-benzo[f]pyrido[2,3-b][1,2,4]triazolo[4,3-d][1,4]diazepin-3-yl)benzyl)piperidin-4-yl)-3-fluorobenzenesulfonamide], 2.7 µM.
For the molecule `O=C(c1ccc2c(c1)OCO2)N1CCN(Cc2ccc(-c3nnc4n3-c3cccnc3Nc3ccccc3-4)cc2)CC1` [Example 158, (4-(4-(9H-benzo[f]pyrido[2,3-b][1,2,4]triazolo[4,3-d][1,4]diazepin-3-yl)benzyl)piperazin-1-yl)(benzo[d][1,3]dioxol-5-yl)methanone], the IC50 turned out to be 6.9 µM.
With `N#Cc1cccc(C(=O)N2CCN(Cc3ccc(-c4nnc5n4-c4cccnc4Nc4ccccc4-5)cc3)CC2)c1` [Example 159, 3-(4-(4-(9H-benzo[f]pyrido[2,3-b][1,2,4]triazolo[4,3-d][1,4]diazepin-3-yl)benzyl)piperazine-1-carbonyl)benzonitrile], the half-inhibitory concentration (IC50) was determined as 2 µM.
Consider `Cc1ccc(C(=O)N2CCN(Cc3ccc(-c4nnc5n4-c4cccnc4Nc4ccccc4-5)cc3)CC2)cc1` [Example 160, (4-(4-(9H-benzo[f]pyrido[2,3-b][1,2,4]triazolo[4,3-d][1,4]diazepin-3-yl)benzyl)piperazin-1-yl)(p-tolyl)methanone], for which the IC50 was 3 µM.
In the case of `O=C(c1ccccn1)N1CCN(Cc2ccc(-c3nnc4n3-c3cccnc3Nc3ccccc3-4)cc2)CC1` [Example 161, (4-(4-(9H-benzo[f]pyrido[2,3-b][1,2,4]triazolo[4,3-d][1,4]diazepin-3-yl)benzyl)piperazin-1-yl)(pyridin-2-yl)methanone] it was 4.2 µM.
As for `O=C1NCN(c2ccccc2)C12CCN(Cc1ccc(-c3nnc4n3-c3cccnc3Nc3ccccc3-4)cc1)CC2` [Example 162, 8-(4-(9H-benzo[f]pyrido[2,3-b][1,2,4]triazolo[4,3-d][1,4]diazepin-3-yl)benzyl)-1-phenyl-1,3,8-triazaspiro[4.5]decan-4-one], the concentration for half-maximal inhibition (IC50) is 0.95 µM.
Take `N#CC1(c2ccccc2)CCN(Cc2ccc(-c3nnc4n3-c3cccnc3Nc3ccccc3-4)cc2)CC1` [Example 163, 1-(4-(9H-benzo[f]pyrido[2,3-b][1,2,4]triazolo[4,3-d][1,4]diazepin-3-yl)benzyl)-4-phenylpiperidine-4-carbonitrile]: the half-inhibitory concentration (IC50) was 7.3 µM.
For `O=C(c1ccc(F)cc1)C1CCN(Cc2ccc(-c3nnc4n3-c3cccnc3Nc3ccccc3-4)cc2)CC1` [Example 164, (1-(4-(9H-benzo[f]pyrido[2,3-b][1,2,4]triazolo[4,3-d][1,4]diazepin-3-yl)benzyl)piperidin-4-yl)(4-fluorophenyl)methanone], the IC50 came to 1.8 µM.
In the case of `O=C(Nc1ccc(F)cc1)NC1CCN(Cc2ccc(-c3nnc4n3-c3cccnc3Nc3ccccc3-4)cc2)CC1` [Example 165, 1-(1-(4-(9H-benzo[f]pyrido[2,3-b][1,2,4]triazolo[4,3-d][1,4]diazepin-3-yl)benzyl)piperidin-4-yl)-3-(4-fluorophenyl)urea] it was 0.33 µM.
In the case of `COc1ccc(C)cc1NC(=O)NC1CCN(Cc2ccc(-c3nnc4n3-c3cccnc3Nc3ccccc3-4)cc2)CC1` [Example 166, 1-(1-(4-(9H-benzo[f]pyrido[2,3-b][1,2,4]triazolo[4,3-d][1,4]diazepin-3-yl)benzyl)piperidin-4-yl)-3-(2-methoxy-5-methylphenyl)urea], the IC50 was determined as 0.72 µM.
On to `O=C(Nc1ccccc1F)NC1CCN(Cc2ccc(-c3nnc4n3-c3cccnc3Nc3ccccc3-4)cc2)CC1` [Example 167, 1-(1-(4-(9H-benzo[f]pyrido[2,3-b][1,2,4]triazolo[4,3-d][1,4]diazepin-3-yl)benzyl)piperidin-4-yl)-3-(2-fluorophenyl)urea], for which the IC50 turned out to be 0.44 µM.
For the molecule `COc1ccc(CCNC(=O)NC2CCN(Cc3ccc(-c4nnc5n4-c4cccnc4Nc4ccccc4-5)cc3)CC2)cc1OC` [Example 169, 1-(1-(4-(9H-benzo[f]pyrido[2,3-b][1,2,4]triazolo[4,3-d][1,4]diazepin-3-yl)benzyl)piperidin-4-yl)-3-(3,4-dimethoxyphenethyl)urea], the IC50 was 6 µM.
In the case of `Cc1cccc(NC(=O)NC2CCN(Cc3ccc(-c4nnc5n4-c4cccnc4Nc4ccccc4-5)cc3)CC2)c1` [Example 170, 1-(1-(4-(9H-benzo[f]pyrido[2,3-b][1,2,4]triazolo[4,3-d][1,4]diazepin-3-yl)benzyl)piperidin-4-yl)-3-(m-tolyl)urea], the half-maximal inhibitory concentration (IC50) was 0.66 µM.
Take `COc1cccc(CNC(=O)NC2CCN(Cc3ccc(-c4nnc5n4-c4cccnc4Nc4ccccc4-5)cc3)CC2)c1` [Example 171, 1-(1-(4-(9H-benzo[f]pyrido[2,3-b][1,2,4]triazolo[4,3-d][1,4]diazepin-3-yl)benzyl)piperidin-4-yl)-3-(3-methoxybenzyl)urea]: the 50% inhibitory concentration (IC50) is 0.78 µM.
For `COc1ccc(NC(=O)NC2CCN(Cc3ccc(-c4nnc5n4-c4cccnc4Nc4ccccc4-5)cc3)CC2)cc1Cl` [Example 172, 1-(1-(4-(9H-benzo[f]pyrido[2,3-b][1,2,4]triazolo[4,3-d][1,4]diazepin-3-yl)benzyl)piperidin-4-yl)-3-(3-chloro-4-methoxyphenyl)urea], the half-maximal inhibitory concentration (IC50) worked out at 1.2 µM.
Consider `O=C(NCc1ccccc1Cl)NC1CCN(Cc2ccc(-c3nnc4n3-c3cccnc3Nc3ccccc3-4)cc2)CC1` [Example 173, 1-(1-(4-(9H-benzo[f]pyrido[2,3-b][1,2,4]triazolo[4,3-d][1,4]diazepin-3-yl)benzyl)piperidin-4-yl)-3-(2-chlorobenzyl)urea], for which the IC50 was 0.91 µM.

For orientation: IC50 means the point on the concentration scale where inhibition reaches its midpoint.
